Measurements: US10479780B2, “Aminopyrazole derivatives” (Chugai Seiyaku Kabushiki Kaisha, priority 2015, dated 2019)
Like-named read-outs stand apart in the source and are kept apart here.

Legend:
Type in all cases: biochemical
human Src enzyme = biological target: T1, human Src enzyme (Homo sapiens, UniProt P12931); test: Src enzyme inhibitory activity (time-resolved fluorometry, biotinylated peptide phosphorylation); conditions: read-out: SRC_IC50
T1 construct: purchased Carna Biosciences, Inc. 08-173
How it was run: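 Compounds were tested for blocking tyrosine phosphorylation of a biotinylated peptide substrate by recombinant human Src. Phosphorylated product was quantified by time-resolved fluorometry using europium cryptate and XL665 conjugates, and IC50 was calculated against the compound-free control.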

human Lck enzyme = biological target: T2, human Lck enzyme (Homo sapiens, UniProt P06239); test: Lck enzyme inhibitory activity (time-resolved fluorometry, biotinylated peptide phosphorylation); conditions: read-out: LCK_IC50
T2 construct: purchased Carna Biosciences, Inc. 08-170
How it was run: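 Readout pairs a europium cryptate-labelled anti-phosphotyrosine antibody with XL665-streptavidin, measured by time-resolved fluorescence. IC50 derived from percent inhibition against untreated controls.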

human Yes1 enzyme = biological target: T3, human Yes1 enzyme (Homo sapiens, UniProt P07947); test: Yes1 enzyme inhibitory activity (time-resolved fluorometry, biotinylated peptide phosphorylation); conditions: read-out: YES_IC50
T3 construct: made in house
How it was run: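 Inhibition was expressed against a compound-free control to give IC50, using TR-FRET read-out (Eu-cryptate anti-pTyr antibody, streptavidin-XL665).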

[1] = biotinylated peptide phosphorylation

T2 sequence (P06239 whole entry): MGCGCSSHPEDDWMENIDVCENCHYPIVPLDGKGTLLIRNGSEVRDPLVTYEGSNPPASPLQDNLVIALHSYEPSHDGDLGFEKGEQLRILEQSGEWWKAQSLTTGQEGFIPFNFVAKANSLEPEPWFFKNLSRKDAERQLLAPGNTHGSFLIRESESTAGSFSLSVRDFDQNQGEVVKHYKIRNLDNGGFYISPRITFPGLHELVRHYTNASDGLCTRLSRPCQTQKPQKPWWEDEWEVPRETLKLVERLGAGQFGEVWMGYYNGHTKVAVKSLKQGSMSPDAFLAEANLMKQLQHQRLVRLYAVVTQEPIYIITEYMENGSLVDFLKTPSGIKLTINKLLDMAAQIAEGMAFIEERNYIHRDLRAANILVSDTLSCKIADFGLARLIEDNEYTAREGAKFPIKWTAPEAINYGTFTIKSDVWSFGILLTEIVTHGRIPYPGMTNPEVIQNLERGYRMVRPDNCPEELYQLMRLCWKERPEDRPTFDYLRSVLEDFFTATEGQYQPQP
T3 sequence (P07947 whole entry): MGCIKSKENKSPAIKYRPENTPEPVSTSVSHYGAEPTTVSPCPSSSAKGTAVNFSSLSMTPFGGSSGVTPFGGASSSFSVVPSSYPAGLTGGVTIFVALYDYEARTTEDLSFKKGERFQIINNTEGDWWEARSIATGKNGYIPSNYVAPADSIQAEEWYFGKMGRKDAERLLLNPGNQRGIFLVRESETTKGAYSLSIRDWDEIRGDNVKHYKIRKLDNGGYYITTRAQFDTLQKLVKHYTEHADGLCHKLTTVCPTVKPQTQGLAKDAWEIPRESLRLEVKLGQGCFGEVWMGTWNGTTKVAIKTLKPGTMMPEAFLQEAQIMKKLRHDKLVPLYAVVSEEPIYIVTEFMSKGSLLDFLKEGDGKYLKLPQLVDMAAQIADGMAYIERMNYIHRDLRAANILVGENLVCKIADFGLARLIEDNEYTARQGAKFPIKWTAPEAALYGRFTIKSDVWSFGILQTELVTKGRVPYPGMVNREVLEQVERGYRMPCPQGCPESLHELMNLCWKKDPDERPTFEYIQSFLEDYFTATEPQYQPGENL
T1 sequence (P12931 whole entry): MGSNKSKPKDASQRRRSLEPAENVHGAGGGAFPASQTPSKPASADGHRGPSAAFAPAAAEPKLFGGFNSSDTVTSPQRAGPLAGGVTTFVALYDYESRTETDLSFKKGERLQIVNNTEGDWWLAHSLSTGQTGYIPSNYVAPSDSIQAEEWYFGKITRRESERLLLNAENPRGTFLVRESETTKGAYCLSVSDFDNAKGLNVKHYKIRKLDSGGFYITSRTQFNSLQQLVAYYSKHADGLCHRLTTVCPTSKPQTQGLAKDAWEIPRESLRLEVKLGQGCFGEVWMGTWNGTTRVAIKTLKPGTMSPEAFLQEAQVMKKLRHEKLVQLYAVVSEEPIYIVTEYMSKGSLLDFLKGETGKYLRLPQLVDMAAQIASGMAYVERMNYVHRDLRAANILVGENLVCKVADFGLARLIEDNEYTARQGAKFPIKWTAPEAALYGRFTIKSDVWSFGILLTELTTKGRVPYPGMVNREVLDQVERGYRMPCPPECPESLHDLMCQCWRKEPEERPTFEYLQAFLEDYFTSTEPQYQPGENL

SMILES	IC50 (human Src enzyme; [1]) [nM]	IC50 (human Lck enzyme; [1]) [nM]	IC50 (human Yes1 enzyme; [1]) [nM]	IC50 (human Src enzyme) [nM]	IC50 (human Lck enzyme) [nM]	IC50 (human Yes1 enzyme) [nM]
Cc1cc(-n2ncc(C(=O)c3cc4cc(OC5CCN(C6CCC6)CC5)c(N)cc4[nH]3)c2N)ccc1Oc1ccccc1F [Example 5-1-232, [6-amino-5-(1-cyclobutylpiperidin-4-yl)oxy-1H-indol-2-yl]-[5-amino-1-[4-(2-fluorophenoxy)-3-methylphenyl]pyrazol-4-yl]methanone]				230	30	1.4
Cc1cc2cc(C(=O)c3cnn(-c4ccc(Oc5ccccc5F)cc4C)c3N)[nH]c2cc1NS(=O)(=O)N1CCOCC1 [Example 4-2-105, N-[2-[5-amino-1-[4-(2-fluorophenoxy)-2-methylphenyl]pyrazole-4-carbonyl]-5-methyl-1H-indol-6-yl]morpholine-4-sulfonamide]	100	24	0.36			
Cc1cc(Oc2ccc(F)cc2)ncc1-n1ncc(C(=O)c2cc3cc(F)c(NS(=O)(=O)CCCF)cc3[nH]2)c1N [Example 4-2-027, N-[2-[5-amino-1-[6-(4-fluorophenoxy)-4-methylpyridin-3-yl]pyrazole-4-carbonyl]-5-fluoro-1H-indol-6-yl]-3-fluoropropane-1-sulfonamide]	95	30	10			
Cc1cc2cc(C(=O)c3cnn(-c4cnc(Oc5c(F)cccc5F)cc4C)c3N)[nH]c2cc1N1C(=O)NC2(CCN(C3COC3)CC2)C1=O [Example 5-1-360, 3-[2-[5-amino-1-[6-(2,6-difluorophenoxy)-4-methylpyridin-3-yl]pyrazole-4-carbonyl]-5-methyl-1H-indol-6-yl]-8-(oxetan-3-yl)-1,3,8-triazaspiro[4.5]decane-2,4-dione]				19	6.3	2.2
Cc1cc(Oc2c(F)cccc2F)ncc1-n1ncc(C(=O)c2cc3cc(OC(F)F)c(C4CCN(S(=O)(=O)C5CC5)CC4)cc3[nH]2)c1N [Example 4-17-013, [5-amino-1-[6-(2,6-difluorophenoxy)-4-methylpyridin-3-yl]pyrazol-4-yl]-[6-(1-cyclopropylsulfonylpiperidin-4-yl)-5-(difluoromethoxy)-1H-indol-2-yl]methanone]	46	37	17			
Cc1cc(Oc2c(F)cccc2F)ncc1-n1ncc(C(=O)c2cc3cc(OCC(F)F)c(N4CCCC4=O)cc3[nH]2)c1N [Example 4-21-001, 1-{2-{5-amino-1-[6-(2,6-difluorophenoxy)-4-methylpyridin-3-yl]pyrazole-4-carbonyl}-5-(2,2-difluoroethoxy)-1H-indol-6-yl}pyrrolidin-2-one]	13	6.2	3.7			
Cc1cc2cc(C(=O)c3cnn(-c4ccc(Oc5ccccc5F)cc4C)c3N)[nH]c2cc1N1CCOCC1 [Example 4-2-122, [5-amino-1-[4-(2-fluorophenoxy)-2-methylphenyl]pyrazol-4-yl]-(5-methyl-6-morpholin-4-yl-1H-indol-2-yl)methanone]	34	7.3	3.6			
CS(=O)(=O)Nc1cc2[nH]c(C(=O)c3cnn(-c4ccc(Oc5cccc(F)c5F)cc4Cl)c3N)cc2cc1F [Example 5-1-016, N-[2-[5-amino-1-[2-chloro-4-(2,3-difluorophenoxy)phenyl]pyrazole-4-carbonyl]-5-fluoro-1H-indol-6-yl]methanesulfonamide]				93	25	0.72

The next lines start with the values.

IC50 (human Src enzyme; [1]) [nM]	IC50 (human Lck enzyme; [1]) [nM]	IC50 (human Yes1 enzyme; [1]) [nM]	IC50 (human Src enzyme) [nM]	IC50 (human Lck enzyme) [nM]	IC50 (human Yes1 enzyme) [nM]	SMILES
120	39	3.6				Cc1cc(Oc2ccccc2F)ncc1-n1ncc(C(=O)c2cc3cc(OC(F)F)c(NS(=O)(=O)CCCF)cc3[nH]2)c1N [Example 4-24-009, N-[2-[5-amino-1-[6-(2-fluorophenoxy)-4-methylpyridin-3-yl]pyrazole-4-carbonyl]-5-(difluoromethoxy)-1H-indol-6-yl]-3-fluoropropane-1-sulfonamide]
27	13	4.5				CC(=O)N1CCC(c2cc3[nH]c(C(=O)c4cnn(-c5ccc(Oc6ccccc6F)cc5C)c4N)cc3cc2OCC(F)F)CC1 [Example 4-17-014, 1-[4-[2-[5-amino-1-[4-(2-fluorophenoxy)-2-methylphenyl]pyrazole-4-carbonyl]-5-(2,2-difluoroethoxy)-1H-indol-6-yl]piperidin-1-yl]ethanone]
			50	25	7.5	Cc1cc(Oc2c(F)cccc2F)ncc1-n1ncc(C(=O)c2cc3cc(OCC(F)F)c(C4CCOCC4)cc3[nH]2)c1N [Example 5-1-259, [5-amino-1-[6-(2,6-difluorophenoxy)-4-methylpyridin-3-yl]pyrazol-4-yl]-[5-(2,2-difluoroethoxy)-6-(oxan-4-yl)-1H-indol-2-yl] methanone]
			130	28	4.7	Cc1cc(Oc2ccccc2F)ccc1-n1ncc(C(=O)c2cc3cc(OCC(F)F)c(N4C(=O)[C@@H]5C[C@@H](NC(=O)OCC6c7ccccc7-c7ccccc76)CN5C4=O)cc3[nH]2)c1N [Example 5-1-270, 9H-fluoren-9-ylmethyl N-[(6R,7aS)-2-[2-[5-amino-1-[4-(2-fluorophenoxy)-2-methylphenyl]pyrazole-4-carbonyl]-5-(2,2-difluoroethoxy)-1H-indol-6-yl]-1,3-dioxo-5,6,7,7a-tetrahydropyrrolo[1,2-c]imidazol-6-yl] carbamate]
48	18	5.5				Cc1cc(Oc2ccccc2F)ncc1-n1ncc(C(=O)c2cc3cc(OC(F)F)c(N4CCN(S(C)(=O)=O)CC4)cc3[nH]2)c1N [Example 4-23-004, [5-amino-1-[6-(2-fluorophenoxy)-4-methylpyridin-3-yl]pyrazol-4-yl]-[5-(difluoromethoxy)-6-(4-methylsulfonylpiperazin-1-yl)-1H-indol-2-yl]methanone]
			350	120	10	Cc1cc(Oc2c(F)cccc2F)ncc1-n1ncc(C(=O)c2cc3cc(OCC(F)F)c(NS(=O)(=O)C4CCCC4)cc3[nH]2)c1N [Example 5-1-318, N-[2-[5-amino-1-[6-(2,6-difluorophenoxy)-4-methylpyridin-3-yl]pyrazole-4-carbonyl]-5-(2,2-difluoroethoxy)-1H-indol-6-yl] cyclopentanesulfonamide]
270	67	2.7				Cc1cnc(F)c(S(=O)(=O)Nc2cc3[nH]c(C(=O)c4cnn(-c5ccc(Oc6ccccc6F)cc5C)c4N)cc3cc2C)c1 [Example 5-1-520, N-[2-[5-amino-1-[4-(2-fluorophenoxy)-2-methylphenyl]pyrazole-4-carbonyl]-5-methyl-1H-indol-5-yl]-2-fluoro-5-methylpyridine-3-sulfonamide]
			3.1	2.8	0.17	Cc1cc(Oc2c(F)cccc2F)ncc1-n1ncc(C(=O)c2cc3cc(OC4CCN(C(C)C)CC4)c(N4CCC(O)CC4)cc3[nH]2)c1N [Example 5-1-202, [5-amino-1-[6-(2,6-difluorophenoxy)-4-methylpyridin-3-yl]pyrazol-4-yl]-[6-(4-hydroxypiperidin-1-yl)-5-(1-propan-2-ylpiperidin-4-yl)oxy-1H-indol-2-yl]methanone]
63	14	2.4				Cc1cc2cc(C(=O)c3cnn(-c4cnc(Oc5c(F)cccc5Cl)cc4C)c3N)[nH]c2cc1NS(C)(=O)=O [Example 4-2-064, N-[2-[5-amino-1-[6-(2-chloro-6-fluorophenoxy)-4-methylpyridin-3-yl]pyrazole-4-carbonyl]-5-methyl-1H-indol-6-yl]methanesulfonamide]
6.4	2.1	1.4				Cc1cc(Oc2cccc(Cl)c2)ccc1-n1ncc(C(=O)c2cc3cc(C4CCN(C(C)C)CC4)c(F)cc3[nH]2)c1N [Example 4-2-003, [5-amino-1-[4-(3-chlorophenoxy)-2-methylphenyl]pyrazol-4-yl]-[6-fluoro-5-(1-propan-2-ylpiperidin-4-yl)-1H-indol-2-yl]methanone]
			26	1.7	0.81	Cc1cc(Oc2c(F)cccc2F)ncc1-n1ncc(C(=O)c2cc3cc(F)c(N4CCC(N5CCOCC5)CC4)cc3[nH]2)c1N [Example 5-1-112, [5-amino-1-[6-(2,6-difluorophenoxy)-4-methylpyridin-3-yl]pyrazol-4-yl]-[5-fluoro-6-(4-morpholin-4-ylpiperidin-1-yl)-1H-indol-2-yl] methanone]
			7.4	3.7	0.77	Cc1cc(Oc2c(F)cccc2F)ncc1-n1ncc(C(=O)c2cc3cc(OC4CCN(C(C)C)CC4)c(-c4cnn(C)c4)cc3[nH]2)c1N [Example 5-1-249, [5-amino-1-[6-(2,6-difluorophenoxy)-4-methylpyridin-3-yl]pyrazol-4-yl]-[6-(1-methylpyrazol-4-yl)-5-(1-propan-2-ylpiperidin-4-yl)oxy-1H-indol-2-yl]methanone]
25	13	3.4				Cc1cc(Oc2ccccc2F)cc(F)c1-n1ncc(C(=O)c2cc3cc(OC(F)F)c(C4CCN(S(C)(=O)=O)CC4)cc3[nH]2)c1N [Example 4-17-006, [5-amino-1-[2-fluoro-4-(2-fluorophenoxy)-6-methylphenyl]pyrazol-4-yl]-[5-(difluoromethoxy)-6-(1-methylsulfonylpiperidin-4-yl)-1H-indol-2-yl]methanone]
